Results published in patent publication US7074789B2, “Kinase inhibitors” (Amgen Inc., priority 1999, dated 2006).

How the values were obtained:
Type in all cases: biochemical
[1] = molecular target: T1, c-Met (Homo sapiens, UniProt P08581); test: Kinase inhibition assay (33P transfer), c-Met; conditions: Table 2, class symbols A-E; read-out: Met-1
T1 construct: Kinases are expressed as either kinase domains or full length constructs; made in house
Procedure, shortened: (§1)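 Read-out: scintillation counts of 33P moved from ATP onto synthetic peptide polymer coated on the well surface, after washing with 0.5% phosphoric acid. Enzymes were tagged (GST or polyHistidine) and came from bacterial or insect-cell expression. IC50 marks 50% loss of incorporated label.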

[2] = molecular target: T2, EGFR (Homo sapiens, UniProt P00533); test: Kinase inhibition assay (33P transfer), EGFR; conditions: Table 2, class symbols A-E; read-out: EGFR-1
T2 construct: Kinases are expressed as either kinase domains or full length constructs; made in house
T2 sequence (P00533 25-1210, species assumed): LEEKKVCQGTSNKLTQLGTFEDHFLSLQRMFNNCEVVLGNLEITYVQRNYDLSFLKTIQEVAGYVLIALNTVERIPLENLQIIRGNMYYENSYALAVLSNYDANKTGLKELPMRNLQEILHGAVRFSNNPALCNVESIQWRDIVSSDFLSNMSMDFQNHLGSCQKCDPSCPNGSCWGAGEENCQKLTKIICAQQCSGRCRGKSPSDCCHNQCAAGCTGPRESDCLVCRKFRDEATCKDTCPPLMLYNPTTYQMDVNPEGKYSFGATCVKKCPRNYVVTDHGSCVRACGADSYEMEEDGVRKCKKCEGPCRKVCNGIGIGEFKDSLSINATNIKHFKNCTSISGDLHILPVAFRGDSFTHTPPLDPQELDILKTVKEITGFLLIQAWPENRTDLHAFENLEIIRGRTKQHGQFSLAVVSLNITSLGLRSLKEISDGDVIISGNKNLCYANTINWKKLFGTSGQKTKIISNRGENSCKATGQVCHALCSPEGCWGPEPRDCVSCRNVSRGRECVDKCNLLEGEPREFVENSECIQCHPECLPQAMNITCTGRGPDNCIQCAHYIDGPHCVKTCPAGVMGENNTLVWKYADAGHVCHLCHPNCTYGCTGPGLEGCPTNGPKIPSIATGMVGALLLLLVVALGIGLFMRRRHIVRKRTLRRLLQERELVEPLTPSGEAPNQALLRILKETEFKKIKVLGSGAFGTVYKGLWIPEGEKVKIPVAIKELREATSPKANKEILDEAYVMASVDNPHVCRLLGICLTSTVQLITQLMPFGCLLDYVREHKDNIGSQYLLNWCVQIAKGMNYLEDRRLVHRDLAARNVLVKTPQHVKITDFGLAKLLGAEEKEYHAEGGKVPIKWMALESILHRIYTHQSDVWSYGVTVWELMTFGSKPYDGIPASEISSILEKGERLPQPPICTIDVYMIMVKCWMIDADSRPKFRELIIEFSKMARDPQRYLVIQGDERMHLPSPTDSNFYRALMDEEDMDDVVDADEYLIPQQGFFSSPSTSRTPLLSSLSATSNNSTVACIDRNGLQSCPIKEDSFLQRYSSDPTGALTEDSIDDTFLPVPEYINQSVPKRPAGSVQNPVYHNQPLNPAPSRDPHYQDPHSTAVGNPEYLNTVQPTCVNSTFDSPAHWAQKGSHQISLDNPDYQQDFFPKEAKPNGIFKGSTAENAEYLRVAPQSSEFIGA
Procedure, shortened: as §1

[3] = molecular target: T3, Itk (Homo sapiens, UniProt Q08881); test: Kinase inhibition assay (33P transfer), Itk; conditions: Table 3, class symbols; read-out: Itk-1
T3 construct: Kinases are expressed as either kinase domains or full length constructs; made in house
T3 sequence (Q08881 1-620): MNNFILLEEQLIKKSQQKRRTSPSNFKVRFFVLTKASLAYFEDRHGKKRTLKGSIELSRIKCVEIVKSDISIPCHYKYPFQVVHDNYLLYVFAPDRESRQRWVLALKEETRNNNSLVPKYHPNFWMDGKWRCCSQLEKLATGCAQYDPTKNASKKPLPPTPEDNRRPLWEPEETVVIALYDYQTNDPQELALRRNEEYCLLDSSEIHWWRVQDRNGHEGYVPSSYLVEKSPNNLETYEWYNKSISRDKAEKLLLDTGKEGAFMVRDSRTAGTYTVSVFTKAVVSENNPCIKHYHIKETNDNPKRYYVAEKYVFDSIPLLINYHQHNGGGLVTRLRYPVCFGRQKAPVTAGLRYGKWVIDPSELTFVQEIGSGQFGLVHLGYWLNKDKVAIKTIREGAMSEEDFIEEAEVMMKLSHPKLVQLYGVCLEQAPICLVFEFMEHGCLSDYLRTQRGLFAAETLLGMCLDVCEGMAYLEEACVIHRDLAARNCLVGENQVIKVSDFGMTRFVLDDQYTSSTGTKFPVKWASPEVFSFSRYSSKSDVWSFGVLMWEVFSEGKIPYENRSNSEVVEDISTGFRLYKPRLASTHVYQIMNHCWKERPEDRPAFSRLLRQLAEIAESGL
Procedure, shortened: as §1

[4] = molecular target: T4, IGFR-1 (Homo sapiens, UniProt P08069); test: Kinase inhibition assay (33P transfer), IGFR-1; conditions: Table 2, class symbols A-E
T4 construct: Kinases are expressed as either kinase domains or full length constructs; made in house

[5] = molecular target: T5, AKT (Homo sapiens, UniProt Q9Y243); test: Kinase inhibition assay (33P transfer), AKT; conditions: Table 2, class symbols A-E; read-out: AKT3-1
T5 construct: Kinases are expressed as either kinase domains or full length constructs; made in house
T5 sequence (Q9Y243 whole entry, the tested form may be a part): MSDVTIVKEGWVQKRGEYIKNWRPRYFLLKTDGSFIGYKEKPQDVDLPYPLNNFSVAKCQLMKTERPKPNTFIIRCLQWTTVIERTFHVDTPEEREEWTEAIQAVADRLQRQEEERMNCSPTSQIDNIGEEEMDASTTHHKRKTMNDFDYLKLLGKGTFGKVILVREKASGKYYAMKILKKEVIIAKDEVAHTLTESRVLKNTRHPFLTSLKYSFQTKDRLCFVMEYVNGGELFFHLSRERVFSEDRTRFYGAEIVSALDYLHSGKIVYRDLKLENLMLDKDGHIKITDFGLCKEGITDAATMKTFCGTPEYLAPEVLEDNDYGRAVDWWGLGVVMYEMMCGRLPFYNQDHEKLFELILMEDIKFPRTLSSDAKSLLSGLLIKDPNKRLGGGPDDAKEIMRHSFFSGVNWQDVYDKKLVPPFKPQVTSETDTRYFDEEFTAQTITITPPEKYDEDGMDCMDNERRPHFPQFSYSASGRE
Procedure, shortened: (§2)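 Recombinant kinase-domain or full-length fusion proteins (GST or His tag) served as enzyme. Substrate poly(Glu,Tyr) 4:1 or poly(Arg,Ser) 3:1 was bound to the plate; transferred 33P was read by liquid scintillation following acid washing.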

[6] = molecular target: T6, Zap-70 (Homo sapiens, UniProt P43403); test: Kinase inhibition assay (33P transfer), Zap-70; conditions: Table 3, class symbols; read-out: Zap-1
T6 construct: Kinases are expressed as either kinase domains or full length constructs; made in house
T6 sequence (P43403 1-619): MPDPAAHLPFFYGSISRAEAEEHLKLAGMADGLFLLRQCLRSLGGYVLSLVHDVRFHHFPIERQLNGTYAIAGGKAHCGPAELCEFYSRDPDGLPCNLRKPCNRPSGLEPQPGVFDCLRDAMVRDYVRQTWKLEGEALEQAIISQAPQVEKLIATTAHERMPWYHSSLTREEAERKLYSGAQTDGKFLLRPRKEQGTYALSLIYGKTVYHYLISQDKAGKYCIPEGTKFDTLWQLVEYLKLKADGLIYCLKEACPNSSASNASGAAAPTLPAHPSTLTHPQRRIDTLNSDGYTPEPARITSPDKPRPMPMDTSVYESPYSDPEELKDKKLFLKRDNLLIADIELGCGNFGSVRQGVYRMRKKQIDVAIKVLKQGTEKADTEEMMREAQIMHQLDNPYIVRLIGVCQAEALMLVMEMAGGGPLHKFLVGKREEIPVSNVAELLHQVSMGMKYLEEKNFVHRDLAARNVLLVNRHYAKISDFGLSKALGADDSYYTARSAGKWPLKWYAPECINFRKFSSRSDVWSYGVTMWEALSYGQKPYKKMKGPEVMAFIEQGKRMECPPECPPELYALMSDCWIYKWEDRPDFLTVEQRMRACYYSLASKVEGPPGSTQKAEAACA
Procedure, shortened: as §2

[7] = molecular target: T7, PDGFRB (Homo sapiens, UniProt P09619); test: Kinase inhibition assay (33P transfer), PDGFRB; conditions: read-out: PDGFRB-1
T7 construct: Kinases are expressed as either kinase domains or full length constructs; made in house
T7 sequence (P09619 33-1106, species assumed): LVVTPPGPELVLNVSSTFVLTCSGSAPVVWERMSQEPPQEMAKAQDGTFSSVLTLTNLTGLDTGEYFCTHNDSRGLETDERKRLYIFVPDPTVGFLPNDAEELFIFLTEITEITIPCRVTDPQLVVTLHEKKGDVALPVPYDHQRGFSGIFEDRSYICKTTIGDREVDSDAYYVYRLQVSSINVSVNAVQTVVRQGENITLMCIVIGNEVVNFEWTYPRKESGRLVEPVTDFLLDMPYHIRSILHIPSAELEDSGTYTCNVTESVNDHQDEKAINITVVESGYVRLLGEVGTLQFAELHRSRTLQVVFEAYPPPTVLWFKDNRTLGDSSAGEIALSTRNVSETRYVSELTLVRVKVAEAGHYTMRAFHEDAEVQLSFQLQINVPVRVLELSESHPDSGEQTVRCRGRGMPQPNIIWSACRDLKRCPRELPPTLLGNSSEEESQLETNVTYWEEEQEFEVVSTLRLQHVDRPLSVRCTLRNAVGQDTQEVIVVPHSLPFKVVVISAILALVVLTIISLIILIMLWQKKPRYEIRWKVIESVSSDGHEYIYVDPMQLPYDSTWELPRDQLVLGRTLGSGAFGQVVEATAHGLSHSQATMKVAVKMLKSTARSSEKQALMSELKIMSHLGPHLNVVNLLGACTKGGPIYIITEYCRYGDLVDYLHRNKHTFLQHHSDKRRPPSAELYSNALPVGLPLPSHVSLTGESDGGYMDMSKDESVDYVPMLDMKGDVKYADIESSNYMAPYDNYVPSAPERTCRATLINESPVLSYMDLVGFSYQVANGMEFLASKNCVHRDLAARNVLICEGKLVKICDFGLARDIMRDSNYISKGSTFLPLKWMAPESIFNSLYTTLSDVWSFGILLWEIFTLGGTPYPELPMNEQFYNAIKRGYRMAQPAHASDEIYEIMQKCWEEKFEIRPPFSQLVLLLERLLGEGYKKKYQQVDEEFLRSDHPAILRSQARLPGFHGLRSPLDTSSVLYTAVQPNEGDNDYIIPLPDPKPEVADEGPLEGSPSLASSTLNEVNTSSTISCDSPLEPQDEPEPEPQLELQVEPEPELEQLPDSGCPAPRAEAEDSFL

[8] = molecular target: T8, Lck (Homo sapiens, UniProt P06239); test: Kinase inhibition assay (33P transfer), Lck; conditions: Table 3, class symbols; read-out: Lck-1
T8 construct: Kinases are expressed as either kinase domains or full length constructs; made in house
T8 sequence (P06239 whole entry, species assumed, the tested form may be a part): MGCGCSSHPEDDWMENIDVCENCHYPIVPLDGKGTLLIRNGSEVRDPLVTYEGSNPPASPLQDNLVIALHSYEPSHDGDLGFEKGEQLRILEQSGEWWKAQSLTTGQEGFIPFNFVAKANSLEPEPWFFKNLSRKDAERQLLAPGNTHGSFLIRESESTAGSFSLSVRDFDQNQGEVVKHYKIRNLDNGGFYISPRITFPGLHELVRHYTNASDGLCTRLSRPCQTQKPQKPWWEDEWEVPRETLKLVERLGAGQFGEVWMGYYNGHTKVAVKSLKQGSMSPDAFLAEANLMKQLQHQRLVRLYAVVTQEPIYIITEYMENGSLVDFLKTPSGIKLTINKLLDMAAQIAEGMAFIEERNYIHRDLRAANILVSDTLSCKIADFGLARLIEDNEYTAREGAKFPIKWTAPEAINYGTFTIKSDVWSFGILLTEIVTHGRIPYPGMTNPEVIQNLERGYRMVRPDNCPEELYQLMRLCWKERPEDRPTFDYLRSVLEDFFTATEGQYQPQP
Procedure, shortened: as §2

[9] = molecular target: T9, ErbB2 (Homo sapiens, UniProt P04626); test: Kinase inhibition assay (33P transfer), ErbB2; conditions: read-out: ErbB2-2
T9 construct: Kinases are expressed as either kinase domains or full length constructs; made in house
T9 sequence (P04626 23-1255, species assumed): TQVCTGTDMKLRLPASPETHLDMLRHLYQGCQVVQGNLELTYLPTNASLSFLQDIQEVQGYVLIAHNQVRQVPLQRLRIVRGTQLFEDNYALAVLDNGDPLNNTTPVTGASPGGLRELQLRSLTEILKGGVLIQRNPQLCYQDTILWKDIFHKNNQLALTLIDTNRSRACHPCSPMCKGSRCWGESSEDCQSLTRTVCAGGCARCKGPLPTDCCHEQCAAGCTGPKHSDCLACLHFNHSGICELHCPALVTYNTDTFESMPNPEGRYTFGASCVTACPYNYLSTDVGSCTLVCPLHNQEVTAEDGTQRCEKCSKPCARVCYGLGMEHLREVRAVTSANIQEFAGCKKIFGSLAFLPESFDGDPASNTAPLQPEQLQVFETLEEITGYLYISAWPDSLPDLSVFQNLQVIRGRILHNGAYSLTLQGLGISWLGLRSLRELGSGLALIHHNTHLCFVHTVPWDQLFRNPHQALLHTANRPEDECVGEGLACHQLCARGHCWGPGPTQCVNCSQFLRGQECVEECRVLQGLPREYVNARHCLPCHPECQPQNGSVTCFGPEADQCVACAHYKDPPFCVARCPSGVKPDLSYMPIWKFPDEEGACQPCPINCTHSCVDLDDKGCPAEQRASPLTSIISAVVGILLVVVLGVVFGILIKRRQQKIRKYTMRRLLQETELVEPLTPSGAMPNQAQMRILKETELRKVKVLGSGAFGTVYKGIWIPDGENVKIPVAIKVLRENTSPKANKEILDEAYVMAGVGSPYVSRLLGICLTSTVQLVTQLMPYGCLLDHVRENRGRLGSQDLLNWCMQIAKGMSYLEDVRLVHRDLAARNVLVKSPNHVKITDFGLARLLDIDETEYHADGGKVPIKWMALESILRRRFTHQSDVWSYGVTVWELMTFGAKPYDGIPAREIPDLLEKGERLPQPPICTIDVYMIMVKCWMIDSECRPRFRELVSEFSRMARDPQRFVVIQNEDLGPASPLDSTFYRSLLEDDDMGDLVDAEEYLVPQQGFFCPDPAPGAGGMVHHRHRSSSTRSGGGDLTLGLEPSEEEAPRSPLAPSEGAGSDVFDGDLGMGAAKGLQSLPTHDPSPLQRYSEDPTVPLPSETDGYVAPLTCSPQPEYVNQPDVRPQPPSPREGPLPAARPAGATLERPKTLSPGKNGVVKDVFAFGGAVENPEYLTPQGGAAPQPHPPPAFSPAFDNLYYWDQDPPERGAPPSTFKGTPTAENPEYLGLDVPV
Procedure, shortened: as §1

[10] = molecular target: T10, Kdr (Homo sapiens, UniProt P35968); test: Kinase inhibition assay (33P transfer), Kdr; conditions: Table 3, class symbols; read-out: KDR-1
T10 construct: Kinases are expressed as either kinase domains or full length constructs; made in house
Procedure, shortened: as §2

Row | IC50 [1] [µM] | IC50 [2] [µM] | IC50 [3] [µM] | IC50 [4] [µM] | IC50 [5] [µM] | IC50 [6] [µM] | IC50 [7] [µM] | IC50 [8] [µM] | IC50 [9] [µM] | IC50 [10] [µM] | Compound
1 | 0.945 to 5.67 | < 0.945 | 0.945 to 5.67 | > 10.6 | > 10.6 | > 10.6 | 0.945 to 5.67 | > 10.6 | 0.945 to 5.67 | 0.945 to 5.67 | COc1ccc(Nc2ncnc(Nc3ccc4c(cnn4Cc4ccccc4)c3)n2)cc1 [Compound 905]
2 | 0.856 to 5.13 | 0.856 to 5.13 | 0.856 to 5.13 | 0.856 to 5.13 | 5.13 to 7.49 | > 9.63 | 0.856 to 5.13 | 5.13 to 7.49 | 0.856 to 5.13 | 0.856 to 5.13 | COC(=O)c1ccc(-c2cc(Nc3ncnc(Nc4cccc(S(=O)(=O)O)c4)n3)[nH]n2)cc1 [Compound 882]
3 | 1.13 to 6.79 | 1.13 to 6.79 | > 12.7 | > 12.7 | 1.13 to 6.79 | > 12.7 | 1.13 to 6.79 | > 12.7 | > 12.7 | > 12.7 | Cc1ccc2c(c1)CCCN2c1ncnc(Nc2ccc(F)c(F)c2)n1 [Compound 893]
4 | > 11.9 | 6.33 to 9.23 | 9.23 to 11.9 | > 11.9 | > 11.9 | > 11.9 | < 1.05 | > 11.9 | > 11.9 | 1.05 to 6.33 | COc1ccc(Nc2ncnc(Nc3ccc4c(c3)C(=O)OC4)n2)cc1OC [Compound 894]
5 | > 11.3 | < 1 | > 11.3 | < 1 | > 11.3 | > 11.3 | < 1 | 6.01 to 8.77 | > 11.3 | 1 to 6.01 | NC(=O)Cc1cccc(Nc2ncnc(Nc3cccc(Br)c3)n2)c1 [Compound 966]
6 | 5.04 to 7.35 | < 0.84 | > 9.45 | > 9.45 | > 9.45 | > 9.45 | 5.04 to 7.35 | > 9.45 | 5.04 to 7.35 | > 9.45 | CN(c1ccc(Cl)c(Cl)c1)c1ncnc(Nc2ccc3c(cnn3Cc3ccccc3)c2)n1 [Compound 903]
7 | 0.982 to 5.89 | > 11 | 0.982 to 5.89 | 5.89 to 8.59 | 0.982 to 5.89 | 8.59 to 11 | 0.982 to 5.89 | 8.59 to 11 | 5.89 to 8.59 | 0.982 to 5.89 | COc1ccc(CCNc2ncnc(Nc3cc(-c4ccco4)[nH]n3)n2)cc1OC [Compound 823]
8 | < 1 | < 1 | > 11.3 | > 11.3 | > 11.3 | 8.76 to 11.3 | 1 to 6.01 | 6.01 to 8.76 | < 1 | < 1 | Cc1ccc2c(c1)CCCN2c1ncnc(Nc2cccc(Cc3nnn[nH]3)c2)n1 [Compound 635]
9 | > 9.84 | > 9.84 | > 9.84 | > 9.84 | > 9.84 | > 9.84 | 0.874 to 5.25 | > 9.84 | > 9.84 | 0.874 to 5.25 | Fc1ccc(CNc2ncccc2-c2ncnc(Nc3ccc(N4CCOCC4)cc3)n2)cc1 [Compound 1106]
10 | > 9.52 | > 9.52 | > 9.52 | > 9.52 | > 9.52 | > 9.52 | 0.846 to 5.08 | > 9.52 | > 9.52 | 7.41 to 9.52 | COc1cc(Nc2ncnc(-c3cccnc3NCC(C)c3ccccc3)n2)cc(OC)c1OC (stereo not shown) [Compound 890]
11 | 0.954 to 5.72 | < 0.954 | 0.954 to 5.72 | 0.954 to 5.72 | 8.35 to 10.7 | 0.954 to 5.72 | 0.954 to 5.72 | 0.954 to 5.72 | < 0.954 | 0.954 to 5.72 | FC(F)(F)Sc1cccc(Nc2ncnc(Nc3cc(-c4ccco4)[nH]n3)n2)c1 [Compound 827]
12 | < 0.938 | 0.938 to 5.63 | < 0.938 | < 0.938 | 0.938 to 5.63 | > 10.6 | 0.938 to 5.63 | 5.63 to 8.21 | 0.938 to 5.63 | < 0.938 | CNS(=O)(=O)Cc1ccc(Nc2ncnc(Nc3cc(-c4ccco4)[nH]n3)n2)cc1 [Compound 888]
13 | 6.04 to 8.81 | < 1.01 | > 11.3 | > 11.3 | > 11.3 | > 11.3 | 6.04 to 8.81 | 1.01 to 6.04 | 6.04 to 8.81 | 1.01 to 6.04 | COc1cc(Nc2ncnc(N(CCO)c3ccccc3)n2)cc(OC)c1OC [Compound 637]
14 | 0.824 to 4.94 | < 0.824 | 0.824 to 4.94 | > 9.27 | 0.824 to 4.94 | > 9.27 | < 0.824 | 0.824 to 4.94 | 0.824 to 4.94 | 0.824 to 4.94 | Cc1nccc(-c2cccc(Nc3ncnc(Nc4ccc5c(cnn5Cc5ccccc5)c4)n3)c2)n1 [Compound 901]
15 | 7.98 to 10.3 | > 10.3 | 7.98 to 10.3 | 5.47 to 7.98 | > 10.3 | > 10.3 | 0.912 to 5.47 | > 10.3 | > 10.3 | > 10.3 | COC(=O)c1ccc(-c2cc(Nc3ncnc(Nc4cccc5ncccc45)n3)[nH]n2)cc1 [Compound 878]
16 | < 0.871 | 0.871 to 5.22 | 0.871 to 5.22 | < 0.871 | 5.22 to 7.62 | 0.871 to 5.22 | 0.871 to 5.22 | < 0.871 | 0.871 to 5.22 | 0.871 to 5.22 | COC(=O)c1ccc(-c2cc(Nc3ncnc(Nc4cccc(CCC(=O)O)c4)n3)[nH]n2)cc1 [Compound 992]
17 | > 11.5 | < 1.02 | 8.93 to 11.5 | > 11.5 | > 11.5 | > 11.5 | > 11.5 | > 11.5 | 1.02 to 6.12 | > 11.5 | COc1cc(Nc2ncnc(N(C)c3cccc(Cl)c3)n2)cc2ccccc12 [Compound 876]
18 | > 9.86 | > 9.86 | > 9.86 | 5.26 to 7.67 | > 9.86 | > 9.86 | > 9.86 | > 9.86 | > 9.86 | > 9.86 | COC(=O)c1ccc(-c2cc(Nc3ncnc(Nc4cc(Cl)cc(Cl)c4)n3)[nH]n2)cc1 [Compound 811]
19 | 5.69 to 8.3 | < 0.949 | > 10.7 | > 10.7 | > 10.7 | > 10.7 | 8.3 to 10.7 | 5.69 to 8.3 | < 0.949 | 5.69 to 8.3 | Cc1cccc(Nc2ncnc(N(C)c3ccc4c(cnn4Cc4ccccc4)c3)n2)c1 [Compound 668]
